Reference: patent publication EP4755378A1, “DYRK2 INHIBITORS FOR TREATING TUMOURS WITH THE HYPERACTIVE MAPK/ERK PATHWAY” (Universidad de Córdoba, priority 2023, dated 2025)

Experiments:
Assay type in all cases: cell-based
[1] = tested on: HT-29 cells; assay: XTT cell viability assay, HT-29 cells; conditions: HT-29 (B-RAF V600E), different doses of Dabrafenib, with or without LDN192960 10 µM, 48 hours, Figure 16
[2] = tested on: HCT116 cells; assay: XTT cell viability assay, HCT116 cells; conditions: HCT116 (mutated RAS), 48 hours, Figure 14
[3] = tested on: pERK1/2-T202/T204; assay: Western-blot of ERK1/2 activation loop phosphorylation in HEK-293T cells; conditions: Dabrafenib 10 µM 24 hours, EGF 50-100 ng/ml 5 minutes, Figure 13A
[4] = tested on: DYRK2; assay: Western-blot of DYRK2 protein levels in HEK-293T cells; conditions: for DYRK2 levels: HEK-293T transfected with Flag-DYRK2, inhibitor 10 µM for 24 hours, Figure 13B
[5] = tested on: A549 cells; assay: XTT cell viability assay, A549 cells; conditions: A549 (mutated RAS), 48 hours, Figure 15

SMILES | cell viability [1] | cell viability (tumour survival) ([2]; low doses of Dabrafenib) | cell viability ([2]; very high doses of Dabrafenib) | pathway activation [3] | DYRK2 stabilisation ([4]; HEK-293T transfected with Flag-DYRK2, Dabrafenib 10 µM 24 hours, Figure 13A) | DYRK2 levels [4] | cell viability (tumour survival) ([5]; low doses of Dabrafenib) | cell viability ([5]; very high doses of Dabrafenib)
CC(C)(C)c1nc(-c2cccc(NS(=O)(=O)c3c(F)cccc3F)c2F)c(-c2ccnc(N)n2)s1 [Dabrafenib] | dose-dependent decrease in viability | increase in tumour survival compared to the control | slightly reducing cell viability | reduction in pathway activation | DYRK2 stabilisation was observed | increasing DYRK2 levels | increase in tumour survival compared to the control | slightly reducing cell viability
N#CC(=C(/N)Sc1ccccc1N)/C(C#N)=C(\N)Sc1ccccc1N [U0126] |  |  |  |  |  | increasing DYRK2 levels |  | 
